Data from patent US9351963B2, “Defensin-like molecules as novel antimicrobial agents” (UNIVERSITY OF MARYLAND, BALTIMORE, priority 2010, dated 2016).

How the values were obtained:
[1] = Surface Plasmon Resonance binding to immobilized 3-Lipid II (BIAcore); details: SPR, 10 μM, room temperature, 40 RUs 3-Lipid II
Experimental: Short-chain water-soluble Lipid II containing a lipid tail of three isoprene units was generated and purified essentially as described (Breukink, E., van Heusden, H. E., Vollmerhaus, P. J., Swiezewska, E., Brunner, L., Walker, S., Heck, A. J., and de Kruijff, B. (2003) J Biol Chem 278, 19898-19903). Typically, M. flavus vesicles (120 μmol lipid-Pi) were incubated together with 500 μmol UDP-GlcNAc, 500 μmol UDP-MurNAC-pentapeptide and 400 μmol farnesyl phosphate (3-P) in 100 mM Tris-HCl pH 8.0, 5 mM MgCl2. The incubation lasted two hours at room temperature for 3-P. The synthesis of 3-Lipid II was followed using RP-8 reversed phase TLC (Merck) developed in 75% methanol. For purification, the membranes were removed by centrifugation at 40,000×g and the supernatant was collected and loaded on a C18 HPLC column and eluted with a linear gradient from 50 mM ammonium bicarbonate to 100% methanol in 30 minutes. Farnesyl-Lipid II (3-Lipid II) eluted at approximately 60% methanol. Its identity was confirmed by mass spectroscopy.
Surface Plasmon Resonance binding experiments were carried out on a BIAcore T100 system (BIAcore Inc., Piscataway, N.Y.) at 25° C. The assay buffer was 10 mM HEPES, 150 mM NaCl, 0.05% surfactant P20, pH 7.4 (±3 mM EDTA) supplemented with 10% DMSO. […] For initial determination of binding, defensin mimetics were introduced into the flow-cells (30 μl/min) in the running buffer at 10 μM. Resonance signals were corrected for nonspecific binding by subtracting the background of the control flow-cell. After each analysis, the sensor chip surfaces were regenerated with 50 mM NaOH for 30 s at a flow rate 100 μl/min, and equilibrated with the buffer prior to next injection. For binding kinetics studies, binding isotherms were analyzed with manufacturer-supplied software for BIAcore T100.

S. aureus ATCC 29213 = experiment: Murine peritoneal sepsis model; assay type: in vivo, C57BL/6J mice; details: mouse, in vivo
Experimental: Adult C57BL/6J mice (˜18 grams, 8-10 weeks old) were used for all experiments. Mice were obtained from the Jackson Laboratory (Bar Harbour, Me., USA) and housed in the IHV SPC animal core facility. Mice were fed standard chow (Harlan Laboratories) and water ad libitum. To assess the protective potency of defensin mimetic BAS00127538, groups of 5 mice were inoculated intraperitoneally ˜10^7 CFU/mL of S. aureus ATCC 29213 in 500 μL saline solution/25% DMSO plus 4.5% (w/v) porcine gastric mucin (Sigma Chemical Co., St Louis, Mo.). Infected animals (n=5) were subsequently treated by intra-peritoneal injection 1 and 4 hours post-infection with 2.5 mg/kg of compound in 100 μL sterile saline solution plus 25% DMSO (V/V), vancomycin/lysostaphin (5 mg/kg, saline solution/25% DMSO) or vehicle (saline solution/25% DMSO) as positive and negative controls respectively. Animals were closely observed during a period of 24 hours and mice that show signs of severe sepsis were humanely euthanized. Blood samples were collected by retro-orbital puncture at the indicated intervals post-infection using lithium-heparin polystyrene tubes to prevent coagulation. Spleens were harvested aseptically, weighed and homogenized in 500 μl of sterile saline solution using an IKA T10 basic disperser (IKA, Wilmington N.C.). Whole blood samples and spleen homogenates were serially diluted and plated onto LB agar plates. Bacterial counts were determined following 24 h incubation at 37° C. and expressed as CFU per milliliter for blood and CFU per gram for spleen.
Next, a murine model for sepsis was established to evaluate the efficacy of the lead defensin mimetics as antibiotic agents in vivo. […] Mice (n=5) were inoculated intraperitoneally with S. aureus 29213 and treated 1 h and 4 h post-infection with compound BAS00127538 at 2.5 mg/kg intraperitoneally Animals were monitored for survival and blood and spleen samples were collected. Bacterial counts were determined and compared to control treatment with vancomycin/lysostaphin as measures of efficacy (FIG. 6).

[2] = test system: Staphylococcus aureus ATCC 29213; experiment: Antagonization assay of antibacterial activity against S. aureus; assay type: cell-based; details: for Effect of pre-incubation with D-Ala (Diacetyl-Lys-D-Ala-D-Ala) on killing of S. aureus / Effect of pre-incubation with D-Lac (diacetyl-Lys-D-ala-D-Lac) on killing of S. aureus: 1:200 molar ratio, 30 min
Experimental: Antagonization of the antibacterial activity of defensins against Staphylococcus aureus ATCC 29213 was carried out in a 96-well turbidimetric assay essentially as described previously (Erickson et al.). Defensins (50 μM final concentration) were pre-incubated with the following compounds for 30 min at RT: 1) 3-Lipid II at 1:1, 1:2.5 and 1:5 defensin:Lipid II molar ratios; or; 2) DiAcetyl-Lys-D-Alanine-D-Alanine and DiAcetyl-Lys-D-Alanine-D-Lac at 1:200 molar ratios. Additionally, vancomycin (500 μM) was pre-incubated separately with D-Ala and D-Lac at a 1:200 molar ratio. Following incubation, solutions were diluted two-fold in ten steps and bacteria were added. Bacterial cells were exposed to HNP1 or vancomycin for 30 min and to HD-5 for 60 min in all studies. Defensin activity was neutralized by the addition of Mueller Hinton broth. Bacterial growth was monitored for 12 hours and data were analyzed as described (Erickson et al.).
Next, the inventors examined whether the antibacterial activity of HNP-1 could be antagonized by soluble Lipid II as a measure for functional interaction. HNP-1 (50 μM) was pre-incubated with 3-Lipid II at varying molar ratios and killing of S. aureus was determined using the vCC protocol (Erickson et al.) (FIG. 3). […] Survival curves of S. aureus ATCC 29213 exposed to HNP1 (at concentrations varying two-fold from 50 to 1.25 μM). Defensin peptide was pre-incubated with 3-Lipid II at varying molar ratios for 30 min prior to addition of bacteria. Bacteria were subsequently exposed to HNP-1 for 30 min. Each curve is the mean of two separate experiments (±S.D.). Points scored as zero survival could not be plotted.
The D-Ala-D-Ala motif in the pentapeptide is the predominant binding site for vancomycin, a drug of “last resort” for many multi-drug resistant Gram-positive infections. To examine if the interaction of HNP-1 with Lipid II overlaps with the vancomycin binding site, antagonization assays were performed. Diacetyl-Lys-D-Ala-D-Ala (D-Ala) was used as […] and the non-specific peptide diacetyl-Lys-D-ala-D-Lac (D-Lac) as a control. Both vancomycin and HNP-1 were pre-incubated at a 1:200 molar ratio with both compounds for 30 min, similar to experiments with soluble Lipid II (FIG. 3). Subsequently, the inventors determined any antagonizing effects on the killing of S. aureus (FIG. 4). […] In particular, survival curves of S. aureus ATCC 29213 exposed to HNP1 (upper panel) at concentrations varying two-fold from 50 to 1.25 μM or to vancomycin (lower panel) at concentrations varying two-fold from 2 to 0.0125 μM. HNP-1 and vancomycin were pre-incubated with D-ala or D-lac at a 1:200 molar ratio for 30 min prior to addition of bacteria. Bacteria were subsequently exposed to HNP-1 or vancomycin for 30 min. Each curve is the mean of two separate experiments (±S.D.). Points scored as zero survival could not be plotted.

[3] = test system: Escherichia coli ATCC 25922; experiment: 96-well turbidimetric antibacterial killing assay, E. coli; assay type: cell-based; details: E. coli ATCC 25922, 120 min exposure
Experimental: The antibacterial activity of defensin mimetics against Staphylococcus aureus ATCC 29213 and Escherichia coli 25922 was carried out in a 96-well turbidimetric assay essentially as described (Ericksen, B., Wu, Z., Lu, W., and Lehrer, R. I. (2005) Antimicrob Agents Chemother 49, 269-275) with the following modifications: compounds were exposed for 30 min to […] prior to addition of […] in 10 mM phosphate buffer containing 5% DMSO. Bacterial growth was monitored for 12 hours and data were analyzed as described (Ericksen, et al). Determination of MICs was performed by Micromyx, LLC (Kalamazoo, Mich.) according to CLSI standards (CLSI. (2009) Methods for Dilution Antimicrobial Susceptibility Tests for Bacteria That Grow Aerobically; Approved Standard—Eighth Edition.)
The inventors have previously reported on the antibacterial activity of HNP1 and all of its structurally uncompromised single alanine mutants against S. aureus (Wei, G., Pazgier, M., de Leeuw, E., Rajabi, M., Li, J., Zou, G., Jung, G., Yuan, W., Lu, W. Y., Lehrer, R. I., and Lu, W. J Biol Chem 285, 16275-16285). […] If these residues are indeed important for Lipid II binding, one would expect that replacement by alanine will not affect killing of Gram-negative bacteria. […] In particular, FIG. 12 depicts killing of E. coli by HNP-1 Lipid II single alanine mutants. Survival curves of E. coli ATCC 25922 exposed to HNP-1 or HNP-1 single alanine mutants at concentrations varying two-fold from […]. Bacteria were exposed to defensin peptides for 120 min. Each curve is the mean of two separate experiments (±S.D.). Points scored as zero survival could not be plotted.

[4] = test system: Staphylococcus aureus ATCC 29213; details: previously reported (Wei et al., J Biol Chem 285); cited from earlier work

Compound | Binding of HNP-1 single alanine mutants to Lipid II compared to wild-type HNP-1 [1] | Efficacy in vivo in a murine model for sepsis (S. aureus ATCC 29213) | also measured
Gly23: HNP-1 single alanine mutant, Gly23 replaced by alanine | did not affect binding | – | –
HNP-1 R24A mutant: HNP-1 single alanine mutant, Arg24 replaced by alanine | maintained significant binding | – | –
CC[n+]1c(/C=C2C=C(/C=C/C(C)=C\N(C)C)CC(C)(C)C/2)sc2ccccc21 [Compound 4090-1979, 2-{[(1E)-3-[(1E,3Z)-4-(dimethylamino)-3-methylbuta-1,3-dien-1-yl]-5,5-dimethylcyclohex-2-en-1-ylidene]methyl}-3-ethyl-1,3-benzothiazol-3-ium] | – | proven effective | –
Oc1ccccc1Oc1c(F)c(F)c(-c2c(F)c(F)c(Oc3ccccc3O)c(F)c2F)c(F)c1F [Compound 1611-0203, 2-{2,3,5,6-tetrafluoro-4-[2,3,5,6-tetrafluoro-4-(2-hydroxyphenoxy)phenyl]phenoxy}phenol] | – | proven effective | –
CN[C@H](CC(C)C)C(=O)N[C@H]1C(=O)N[C@@H](CC(N)=O)C(=O)N[C@H]2C(=O)N[C@H]3C(=O)N[C@H](C(=O)N[C@H](C(=O)O)c4cc(O)cc(O)c4-c4cc3ccc4O)[C@H](O)c3ccc(c(Cl)c3)Oc3cc2cc(c3O[C@@H]2O[C@H](CO)[C@@H](O)[C@H](O)[C@H]2O[C@H]2C[C@](C)(N)[C@H](O)[C@H](C)O2)Oc2ccc(cc2Cl)[C@H]1O [Vancomycin, vancomycin] | – | – | Effect of pre-incubation with D-Ala (Diacetyl-Lys-D-Ala-D-Ala) on killing of S. aureus [2]: specifically inhibited the killing; Effect of pre-incubation with D-Lac (diacetyl-Lys-D-ala-D-Lac) on killing of S. aureus [2]: not altered; Killing of S. aureus ([2]; without antagonist, 30 min exposure): very effectively
Arg15: HNP-1 single alanine mutant, Arg15 replaced by alanine | significant reduction of binding | – | Bactericidal activity against E. coli relative to wild-type HNP-1 [3]: exception; Killing of S. aureus by HNP-1 single alanine mutants [4]: severely compromised
CCCCC[n+]1c(/C=C2\Sc3cc(NC(C)=O)ccc3N2CC)ccc2ccccc21 [Compound 4890-0291, N-[(2Z)-3-ethyl-2-[(1-pentylquinolin-1-ium-2-yl)methylidene]-1,3-benzothiazol-6-yl]acetamide] | – | proven effective | –
HNP-1: α-defensin Human Neutrophil Peptide 1, chemically synthesized, wild-type | – | – | Bactericidal activity after pre-incubation with 3-Lipid II ([2]; 1:1 molar ratio, 30 min pre-incubation, S. aureus): reduced by one order of magnitude; Effect of pre-incubation with D-Ala (Diacetyl-Lys-D-Ala-D-Ala) on killing of S. aureus [2]: not competitively inhibited; Effect of pre-incubation with D-Lac (diacetyl-Lys-D-ala-D-Lac) on killing of S. aureus [2]: not competitively inhibited
Arg5: HNP-1 single alanine mutant, Arg5 replaced by alanine | did not affect binding | – | –
CC[n+]1c(/C=C2C=C(/C=C/N(C)c3ccccc3)CC(C)(C)C/2)sc2ccccc21 [Compound 4090-1978, 2-{[(1E)-5,5-dimethyl-3-[(E)-2-[methyl(phenyl)amino]ethenyl]cyclohex-2-en-1-ylidene]methyl}-3-ethyl-1,3-benzothiazol-3-ium] | – | proven effective | –
c1ccc(-c2nc(N(c3ccccc3)c3ccccc3)s[n+]2-c2ccccc2)cc1 [Compound 1492-0330, 5-(diphenylamino)-2,3-diphenyl-1,2$1^5,4-thiadiazol-2-ylium] | – | proven effective | –
Ile10: HNP-1 single alanine mutant, Ile10 replaced by alanine | did not affect binding | – | –
CN(C)c1ccc(/C=C/c2cc(C(C)(C)C)[o+]c(C(C)(C)C)c2)cc1 [Compound 1493-0289, 2,6-di-tert-butyl-4-[(E)-2-[4-(dimethylamino)phenyl]ethenyl]-1$1^4-pyran-1-ylium] | – | proven effective | –
